The subject of this experiment is L1210 leukemia ip in BDF1 mice, survival T/C. Put plainly: NCI In Vivo Anticancer Drug Screen. Data for tumor model L1210 Leukemia (intraperitoneal) in B6D2F1 (BDF1) mice. Conditions: endpoint: mean survival time, higher = longer survival. An outline of the steps:
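In this screen, tumor-bearing mice given compound are compared to those given vehicle, and their survival values are reported as a treated-to-control quotient.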

[1] abbreviates: dose: 100.0 mg/kg/injection, schedule: Q04DX003 (ip), vehicle: saline with Tween-80.
Where [2] appears, read: dose: 200.0 mg/kg/injection, schedule: Q01DX009 (ip), vehicle: saline with Tween-80.
Setting [3] is: dose: 200.0 mg/kg/injection, schedule: Q04DX003 (ip), vehicle: saline with Tween-80.
Where [4] appears, read: dose: 400.0 mg/kg/injection, schedule: Q04DX003 (ip), vehicle: saline with Tween-80.
The mark [5] stands for this setting: dose: 12.5 mg/kg/injection, schedule: Q01DX009 (ip), vehicle: saline with Tween-80.
[6] abbreviates: dose: 400.0 mg/kg/injection, schedule: Q01DX001 (ip), vehicle: saline.
Setting [7] is: dose: 100.0 mg/kg/injection, schedule: Q01DX001 (ip), vehicle: carboxymethylcellulose (CMC).
Setting [8] is: dose: 200.0 mg/kg/injection, schedule: Q01DX001 (ip), vehicle: carboxymethylcellulose (CMC).
Where [9] appears, read: dose: 400.0 mg/kg/injection, schedule: Q01DX001 (ip), vehicle: carboxymethylcellulose (CMC).

The structures appear in SMILES notation. Toxic doses and inconclusive results are not listed.

In the case of `C/C(=N/O)c1ccc(/C(C)=N/O)cc1`, the T/C reads like this: (dose: 75.0 mg/kg/injection, schedule: Q01DX009 (ip), vehicle: saline with Tween-80) 104 % of control; under setting [1], 95 % of control; (dose: 150.0 mg/kg/injection, schedule: Q01DX009 (ip), vehicle: saline with Tween-80) 107 % of control; under setting [2], 107 % of control; under setting [3], 96 % of control; under setting [4], 95 % of control.

As for `COc1cccc(NC(=O)NCCCl)c1`, the T/C is, setting by setting: under setting [5], 96 % of control; (dose: 25.0 mg/kg/injection, schedule: Q01DX009 (ip), vehicle: saline with Tween-80) 86 % of control; (dose: 50.0 mg/kg/injection, schedule: Q01DX009 (ip), vehicle: saline with Tween-80) 90 % of control.

Regarding `CC1C(N)CC2CC1C2(C)C` (stereo unspecified), the T/C runs as follows: (dose: 12.5 mg/kg/injection, schedule: Q04DX002 (ip), vehicle: saline) 113 % of control; (dose: 25.0 mg/kg/injection, schedule: Q04DX002 (ip), vehicle: saline) 102 % of control; (dose: 50.0 mg/kg/injection, schedule: Q04DX002 (ip), vehicle: saline) 102 % of control.

`c1ccc2c(c1)NC(SSC1Nc3ccccc3S1)S2` (stereo unspecified): the T/C (dose: 100.0 mg/kg/injection, schedule: Q01DX001 (ip), vehicle: saline) is 94 % of control; the T/C (dose: 200.0 mg/kg/injection, schedule: Q01DX001 (ip), vehicle: saline) was 88 % of control; the T/C under setting [6] is 94 % of control.

On to `COc1ccc(-c2cc(C(=O)N/N=C/c3ccc([N+](=O)[O-])cc3)c3ccc(C)cc3n2)cc1OC`, for which the T/C runs as follows: under setting [3], 86 % of control; under setting [4], 94 % of control.

Take `CC(=O)CCCCc1ccccc1`: the T/C by setting is: (dose: 100.0 mg/kg/injection, schedule: Q04DX002 (ip), vehicle: Klucel (hydroxypropylcellulose) (HPC)) 88 % of control; (dose: 200.0 mg/kg/injection, schedule: Q04DX002 (ip), vehicle: Klucel (hydroxypropylcellulose) (HPC)) 102 % of control; (dose: 400.0 mg/kg/injection, schedule: Q04DX002 (ip), vehicle: Klucel (hydroxypropylcellulose) (HPC)) 88 % of control.

On to `COc1ccc(CN2CCCN(Cc3ccc(OC)cc3OC)C2c2ccc(N(CCCl)CCCl)cc2Cl)c(OC)c1`, for which the T/C (dose: 50.0 mg/kg/injection, schedule: Q01DX001 (ip), vehicle: carboxymethylcellulose (CMC)) was 101 % of control; the T/C under setting [7] is 95 % of control; the T/C under setting [8] was 98 % of control; the T/C under setting [9] is 101 % of control.

`c1ccc(-c2cncc(CNCc3cncc(-c4ccccc4)c3)c2)cc1`: the T/C (dose: 100.0 mg/kg/injection, schedule: Q01DX001 (ip), vehicle: Klucel (hydroxypropylcellulose) (HPC)) is 102 % of control; the T/C (dose: 200.0 mg/kg/injection, schedule: Q01DX001 (ip), vehicle: Klucel (hydroxypropylcellulose) (HPC)) is 95 % of control; the T/C (dose: 400.0 mg/kg/injection, schedule: Q01DX001 (ip), vehicle: Klucel (hydroxypropylcellulose) (HPC)) is 110 % of control.

For `C#CC(OC(=O)NC1CCCCC1)(c1ccccc1)c1ccccc1`, the T/C by setting is: (dose: 3.0 mg/kg/injection, schedule: Q01DX009 (ip), vehicle: carboxymethylcellulose (CMC)) 101 % of control; (dose: 6.0 mg/kg/injection, schedule: Q01DX009 (ip), vehicle: carboxymethylcellulose (CMC)) 100 % of control; (dose: 6.25 mg/kg/injection, schedule: Q01DX009 (ip), vehicle: saline with Tween-80) 106 % of control; (dose: 12.0 mg/kg/injection, schedule: Q01DX009 (ip), vehicle: carboxymethylcellulose (CMC)) 110 % of control; under setting [5], 106 % of control; (dose: 12.5 mg/kg/injection, schedule: Q01DX009 (ip), vehicle: saline) 106 % of control. Also, the T/C by setting is: (dose: 25.0 mg/kg/injection, schedule: Q01DX009 (ip), vehicle: carboxymethylcellulose (CMC)) 116 % of control; (dose: 25.0 mg/kg/injection, schedule: Q01DX009 (ip), vehicle: saline) 114 % of control; (dose: 50.0 mg/kg/injection, schedule: Q01DX009 (ip), vehicle: saline) 157 % of control; (dose: 88.0 mg/kg/injection, schedule: Q04DX003 (ip), vehicle: saline sonified) 107 % of control; under setting [7], 97 % of control; (dose: 100.0 mg/kg/injection, schedule: Q01DX009 (ip), vehicle: saline sonified) 96 % of control. For the same molecule, the T/C is 97 % of control (dose: 100.0 mg/kg/injection, schedule: Q01DX009 (ip), vehicle: saline); 110 % of control (dose: 132.0 mg/kg/injection, schedule: Q04DX003 (ip), vehicle: saline sonified); 104 % of control under setting [8]; 110 % of control (dose: 300.0 mg/kg/injection, schedule: Q04DX003 (ip), vehicle: saline sonified); 116 % of control under setting [9].

Consider `O=CN/N=C/c1ccc([N+](=O)[O-])cc1`, for which the T/C runs as follows: (dose: 75.0 mg/kg/injection, schedule: Q01DX001 (ip), vehicle: saline) 92 % of control; (dose: 150.0 mg/kg/injection, schedule: Q01DX001 (ip), vehicle: saline) 87 % of control; (dose: 300.0 mg/kg/injection, schedule: Q01DX001 (ip), vehicle: saline) 89 % of control.

For `O=[N+]([O-])c1ccc2c(c1)c(-c1cccc3ccccc13)nc1ccccc12`, the T/C under setting [1] is 95 % of control, the T/C under setting [3] is 93 % of control and the T/C under setting [4] was 91 % of control.

Turning to `Cc1cc2oc(=O)cc(C)c2c(=O)o1`, the T/C was 97 % of control under setting [7] and 92 % of control under setting [8].

Consider `COc1cc(OC)c(C(=O)c2ccccc2[N+](=O)[O-])c(OC)c1`, for which the T/C is 91 % of control (dose: 100.0 mg/kg/injection, schedule: Q01DX009 (ip), vehicle: saline with Tween-80); 99 % of control (dose: 100.0 mg/kg/injection, schedule: Q04DX003 (ip), vehicle: saline); 92 % of control under setting [2]; 99 % of control (dose: 200.0 mg/kg/injection, schedule: Q04DX003 (ip), vehicle: saline); 96 % of control (dose: 400.0 mg/kg/injection, schedule: Q01DX009 (ip), vehicle: saline with Tween-80); 100 % of control (dose: 400.0 mg/kg/injection, schedule: Q04DX003 (ip), vehicle: saline).

As to `O=[N+]([O-])c1cccc(C2=NNC(c3cccc([N+](=O)[O-])c3)=NN2)c1`, the T/C is 87 % of control (dose: 175.0 mg/kg/injection, schedule: Q01DX001 (ip), vehicle: saline); 92 % of control (dose: 265.0 mg/kg/injection, schedule: Q01DX001 (ip), vehicle: saline); 89 % of control under setting [6]; 89 % of control (dose: 600.0 mg/kg/injection, schedule: Q01DX001 (ip), vehicle: saline).

For `OC(CC(O)(C(F)(F)F)C(F)(F)F)c1cccc(Cl)c1` (stereo unspecified), the T/C reads like this: (dose: 50.0 mg/kg/injection, schedule: Q01DX009 (ip), vehicle: gum acacia) 96 % of control; (dose: 100.0 mg/kg/injection, schedule: Q01DX009 (ip), vehicle: gum acacia) 94 % of control; (dose: 100.0 mg/kg/injection, schedule: Q04DX003 (ip), vehicle: gum acacia) 104 % of control; (dose: 200.0 mg/kg/injection, schedule: Q04DX003 (ip), vehicle: gum acacia) 95 % of control.

Source of the values: PubChem BioAssay AID248 (DTP/NCI, 2004).
